Where two headings read alike, the source gives them in different places.
What was measured:
Cbl-b = Cbl-b (Homo sapiens (Human), UniProt Q13191); assay: Cbl-b displacement assay (Cbl-b inhibition assay), Biological Example 1; format: binding
Procedure: Candidate compounds were evaluated for their ability to bind and inhibit Cbl-b, an E3 ubiquitin-protein ligase, as evidenced by their ability to displace a fluorophore-labeled probe (Example 59) bound to Cbl-b.
The ability of candidate compounds to displace a known inhibitor and thereby inhibit Cbl-b activity was measured by monitoring the interaction of Cbl-b with a fluorophore-labeled probe in the presence of the candidate compound. A truncated variant of Cbl-b (UniProt number Q13191; SEQ ID NO:1) containing an Avitag at its N-terminus was co-expressed with BirA biotin ligase and purified using a standard protocol (see Dou et al., Nature Structural and Molecular Biology, 8: 982-987, 2013; Avidity LLC).
Cbl-b Amino Acid Residues 36-427:
Fluorescently-labeled inhibitor probe was synthesized and tagged with BODIPY FL (Example 59). Cbl-b displacement assays were performed in a 384-well plate at room temperature in a 10 μL reaction volume by pre-incubating 0.5 nM Cbl-b or 0.125 nM Cbl-b (final concentration, indicated as “High” and “Low”, respectively) in an assay buffer containing 20 mM HEPES pH 7.5, 150 mM NaCl, 0.01% Triton X-100, 0.01% BSA and 0.5 mM TCEP in the presence of a candidate compound in 1% DMSO (final concentration) for 1 hour. After incubation in the presence of the candidate compound, the plate was incubated for an additional 1 hour in the presence of an approximate EC40 binding saturation consisting of 150 nM fluorescently-labeled inhibitor probe and 2 nM Streptavidin-Terbium (Cisbio) (final concentrations). Following the 1 hour incubation, the plates were read for TR-FRET signal at […] using an Envision plate reader (Perkin Elmer).

[1] = test system: primary human total T-cells; assay: T-cell activation, CD25 surface staining, Biological Example 2; format: cell-based; settings: 48 hours, fold change over baseline; for fold induction at 0.3 µM: 0.3 μM inhibitor; for fold induction at 1 µM: 1 μM inhibitor; for fold induction at 3 µM: 3 μM inhibitor
[2] = test system: primary human total T-cells; assay: T-cell activation, IL-2 secretion, Biological Example 2; format: cell-based; settings: 48 hours, fold change over baseline; for fold induction at 0.3 µM: 0.3 μM inhibitor; for fold induction at 1 µM: 1 μM inhibitor; for fold induction at 3 µM: 3 μM inhibitor
[3] = read-out: IC50 values in the Cbl-b inhibition assay of Biological Example 1
[4] = anti-CD3 and anti-CD28 co-stimulation
[5] = anti-CD3 and anti-CD28 co-stimulation, read-out: CD25 staining CD3/CD28 1 μM
[6] = anti-CD3 stimulation alone, read-out: CD25 staining CD3 1 μM
[7] = anti-CD3 and anti-CD28 co-stimulation, read-out: IL-2 secretion CD3/CD28 1 μM
[8] = anti-CD3 stimulation alone, read-out: IL-2 secretion CD3 1 μM
[9] = 0.125 nM Cbl-b final concentration (Low), read-out: Cbl-b activity IC50 (Low)

Cbl-b, sequence (Q13191 36-427): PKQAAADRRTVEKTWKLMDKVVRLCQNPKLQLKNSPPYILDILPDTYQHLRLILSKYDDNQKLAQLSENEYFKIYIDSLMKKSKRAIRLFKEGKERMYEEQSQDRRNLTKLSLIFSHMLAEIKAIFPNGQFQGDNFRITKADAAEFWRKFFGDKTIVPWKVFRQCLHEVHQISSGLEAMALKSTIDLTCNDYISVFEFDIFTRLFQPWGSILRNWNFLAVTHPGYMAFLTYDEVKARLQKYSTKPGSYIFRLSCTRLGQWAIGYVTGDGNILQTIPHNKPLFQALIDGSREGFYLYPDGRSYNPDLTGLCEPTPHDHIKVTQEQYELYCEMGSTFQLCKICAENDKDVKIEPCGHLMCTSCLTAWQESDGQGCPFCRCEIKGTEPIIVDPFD

| SMILES | IC50 (Cbl-b; 0.5 nM Cbl-b final concentration (High), read-out: Cbl-b activity IC50 (High)) [nM] | IC50 (Cbl-b; [3]) [nM] | fold induction at 0.3 µM [1, 4] | fold induction at 1 µM [1, 5] | fold induction at 1 µM [1, 6] | fold induction at 3 µM ([1]; anti-CD3 stimulation alone) | fold induction at 0.3 µM [2, 4] | fold induction at 1 µM [2, 7] | fold induction at 1 µM [2, 8] | fold induction at 3 µM ([2]; anti-CD3 stimulation alone) | IC50 (Cbl-b; [9]) [nM] |
| --- | --- | --- | --- | --- | --- | --- | --- | --- | --- | --- | --- |
| Cc1cc(C(=O)Nc2cccc([C@]3(Cc4nncn4C)C[C@H](C#N)C3)c2)nc(C2CC2)n1 [Compound 2, N-(3-((1s,3s)-3-cyano-1-((4-methyl-4H-1,2,4-triazol-3-yl)methyl)cyclobutyl)phenyl)-2-cyclopropyl-6-methylpyrimidine-4-carboxamide] | 2 to 5 | 2 to 5 | ≤ 1.24 | ≤ 1.24 | 1 to 1.15 | 1 to 1.15 | ≤ 15 | ≤ 15 | < 0.4 | < 0.4 | – |
| Cn1cnnc1C[C@]1(c2cccc(N3Cc4c(cccc4C(F)(F)F)C3=O)c2)C[C@H](C#N)C1 [Compound 3, (1r,3r)-3-((4-methyl-4H-1,2,4-triazol-3-yl)methyl)-3-(3-(1-oxo-4-(trifluoromethyl)isoindolin-2-yl)phenyl)cyclobutane-1-carbonitrile] | – | ≥ 20 | ≤ 1.24 | ≤ 1.24 | ≤ 1 | 1 to 1.15 | ≤ 15 | ≤ 15 | < 0.4 | < 0.4 | ≥ 20 |
| CCC1CN(Cc2cc3c(c(C(F)(F)F)c2)CN(c2cccc([C@]4(Cc5nncn5C)C[C@@H](C#N)C4)c2)C3=O)CCCO1 (stereo partly shown) [Compound 5, (1r,3r)-3-(3-(6-((2-ethyl-1,4-oxazepan-4-yl)methyl)-1-oxo-4-(trifluoromethyl)isoindolin-2-yl)phenyl)-3-((4-methyl-4H-1,2,4-triazol-3-yl)methyl)cyclobutane-1-carbonitrile] | – | 2 to 5 | > 1.39 | > 1.39 | > 1.15 | > 1.15 | > 20 | > 20 | > 0.85 | > 0.85 | 2 to 5 |
| C[C@@H]1CN(Cc2cc3c(c(C(F)(F)F)c2)CN(c2cccc([C@]4(Cc5nncn5C)C[C@@H](C#N)C4)c2)C3=O)CCO1 [Compound 6, (1r,3r)-3-((4-methyl-4H-1,2,4-triazol-3-yl)methyl)-3-(3-(6-(((R)-2-methylmorpholino)methyl)-1-oxo-4-(trifluoromethyl)isoindolin-2-yl)phenyl)cyclobutane-1-carbonitrile] | – | 2 to 5 | ≤ 1.24 | ≤ 1.24 | 1 to 1.15 | ≤ 1 | ≤ 15 | ≤ 15 | 0.4 to 0.85 | 0.4 to 0.85 | 2 to 5 |
| C[C@@H]1CN(Cc2cc3c(c(C(F)(F)F)c2)CN(c2cccc([C@]4(Cc5nncn5C)C[C@@](C)(C#N)C4)c2)C3=O)CCO1 [Compound 7, (1r,3r)-1-methyl-3-((4-methyl-4H-1,2,4-triazol-3-yl)methyl)-3-(3-(6-(((R)-2-methylmorpholino)methyl)-1-oxo-4-(trifluoromethyl)isoindolin-2-yl)phenyl)cyclobutane-1-carbonitrile] | – | 5 to 20 | ≤ 1.24 | 1.24 to 1.39 | ≤ 1 | ≤ 1 | ≤ 15 | ≤ 15 | < 0.4 | < 0.4 | 5 to 20 |
| Cc1cc(C(=O)Nc2cccc([C@]3(Cc4nncn4C)C[C@@](C)(C#N)C3)c2)nc(C2CC2)n1 [Compound 8, N-(3-((1r,3r)-3-cyano-3-methyl-1-((4-methyl-4H-1,2,4-triazol-3-yl)methyl)cyclobutyl)phenyl)-2-cyclopropyl-6-methylpyrimidine-4-carboxamide] | – | ≥ 20 | – | – | – | – | – | – | – | – | ≥ 20 |
| Cc1cc(C(=O)Nc2cccc([C@]3(Cc4nncn4C)C[C@](C)(C#N)C3)c2)nc(C2CC2)n1 [Compound 9] | – | 5 to 20 | ≤ 1.24 | 1.24 to 1.39 | ≤ 1 | 1 to 1.15 | ≤ 15 | ≤ 15 | < 0.4 | < 0.4 | 5 to 20 |
| C[C@@H]1CN(Cc2cc3c(c(C(F)(F)F)c2)CN(c2cccc([C@]4(Cc5nncn5C)C[C@](C)(C#N)C4)c2)C3=O)CCO1 [Compound 10, (1S,3s)-1-methyl-3-((4-methyl-4H-1,2,4-triazol-3-yl)methyl)-3-(3-(6-(((R)-2-methylmorpholino)methyl)-1-oxo-4-(trifluoromethyl)isoindolin-2-yl)phenyl)cyclobutane-1-carbonitrile] | – | ≥ 20 | ≤ 1.24 | ≤ 1.24 | ≤ 1 | ≤ 1 | ≤ 15 | ≤ 15 | < 0.4 | < 0.4 | ≥ 20 |
| Cn1cnnc1C[C@]1(c2cccc(N3Cc4c(cc(CNC5CC6C(C5)C6(F)F)cc4C(F)(F)F)C3=O)c2)C[C@H](C#N)C1 (stereo partly shown) [Compound 12, (1r,3r)-3-(3-(6-(((6,6-difluorobicyclo[3.1.0]hexan-3-yl)amino)methyl)-1-oxo-4-(trifluoromethyl)isoindolin-2-yl)phenyl)-3-((4-methyl-4H-1,2,4-triazol-3-yl)methyl)cyclobutane-1-carbonitrile] | – | < 1 | 1.24 to 1.39 | 1.24 to 1.39 | 1 to 1.15 | 1 to 1.15 | 15 to 20 | 15 to 20 | > 0.85 | 0.4 to 0.85 | < 1 |
| C[C@@H]1CN(Cc2cc3c(c(C(F)(F)F)c2)CN(c2cccc([C@]4(Cc5nncn5C)C[C@@H](CC#N)C4)c2)C3=O)CCC1(F)F [Compound 51, [(1r,3r)-3-[3-(6-{[(3R)-4,4-difluoro-3-methylpiperidin-1-yl]methyl}-1-oxo-4-(trifluoromethyl)-3H-isoindol-2-yl)phenyl]-3-[(4-methyl-1,2,4-triazol-3-yl)methyl]cyclobutyl]acetonitrile] | – | ≥ 20 | – | – | – | – | – | – | – | – | ≥ 20 |
| C[C@@H]1CN(Cc2cc3c(c(C(F)(F)F)c2)CN(c2cccc([C@]4(Cc5nncn5C)C[C@H](CC#N)C4)c2)C3=O)CCC1(F)F [Compound 52, ((1S,3s)-3-(3-(6-(((R)-4,4-difluoro-3-methylpiperidin-1-yl)methyl)-1-oxo-4-(trifluoromethyl)isoindolin-2-yl)phenyl)-3-((4-methyl-4H-1,2,4-triazol-3-yl)methyl)cyclobutyl)acetonitrile] | – | 5 to 20 | – | – | – | – | – | – | – | – | 5 to 20 |
| C[C@@H]1CN(C(C)(C)c2cc3c(c(C(F)(F)F)c2)CN(c2cccc([C@]4(Cc5nncn5C)C[C@@H](C#N)C4)c2)C3=O)CCO1 [Compound 58, (1R,3r)-3-((4-methyl-4H-1,2,4-triazol-3-yl)methyl)-3-(3-(6-(2-((R)-2-methylmorpholino)propan-2-yl)-1-oxo-4-(trifluoromethyl)isoindolin-2-yl)phenyl)cyclobutane-1-carbonitrile] | – | 2 to 5 | – | – | – | – | – | – | – | – | 2 to 5 |

— patent publication US11530229B2, “Cyano cyclobutyl compounds for CBL-B inhibition and uses thereof” (Nurix Therapeutics, Inc., priority 2019, dated 2022)
